Reference: PubChem BioAssay (NCI)
Where “and” joins values, the source holds several entries; their conditions need not be identical. Identical values can stand only once.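 Interpolation was linear, between the two tested concentrations surrounding the appropriate level; five concentrations were tested over 48 hours in 96-well plates. GI50 = concentration required for 50% inhibition of growth. TGI: total growth inhibition.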

Columns and labels:
Experiment in all cases: inhibition of tumour cell growth, NCI panel, 48 h
TK-10 renal = test system: TK-10 renal
SNB-19 CNS = test system: SNB-19 CNS
HT29 colon = test system: HT29 colon
HL-60(TB) leukemia = test system: HL-60(TB) leukemia
COLO 205 colon = test system: COLO 205 colon
HOP-62 NSCLC = test system: HOP-62 NSCLC
RXF 393 renal = test system: RXF 393 renal
U251 CNS = test system: U251 CNS
CAKI-1 renal = test system: CAKI-1 renal
NCI/ADR-RES ovarian = test system: NCI/ADR-RES ovarian

SMILES	TGI (TK-10 renal)	TGI (SNB-19 CNS)	TGI (HT29 colon)	TGI (HL-60(TB) leukemia)	TGI (COLO 205 colon)	TGI (HOP-62 NSCLC)	TGI (RXF 393 renal)	TGI (U251 CNS)	TGI (CAKI-1 renal)	GI50 (TK-10 renal)	GI50 (SNB-19 CNS) [µM]	GI50 (HT29 colon)	GI50 (HL-60(TB) leukemia)	GI50 (COLO 205 colon)	GI50 (HOP-62 NSCLC) [µM]	GI50 (CAKI-1 renal)	GI50 (U251 CNS) [µM]	TGI (NCI/ADR-RES ovarian) [µM]	GI50 (RXF 393 renal) [µM]
CC(=O)OCCOCn1c2ccccc2c2c3c(c4c5ccccc5n(COCCOC(C)=O)c4c21)C(=O)N(Cc1ccccc1)C3=O	> 100 µM	> 100 µM	> 100 µM	> 100 µM	> 100 µM	> 100 µM	> 100 µM	> 100 µM	–	–	–	–	–	–	–	–	–	–	–
N#CCCN(CCC#N)c1ccc(/C=C(/NC(=O)c2cc([N+](=O)[O-])ccc2Cl)C(=O)N=[N+]=[N-])cc1	> 100 µM	> 100 µM	> 100 µM	> 100 µM	> 100 µM	> 100 µM	> 100 µM	> 100 µM	> 100 µM	–	–	–	–	–	–	–	–	–	–
C/C(NNC(=O)c1ccccc1O)=C1\C=Nc2ccccc2S1	> 100 µM	> 100 µM	> 100 µM	41.9 µM	–	> 100 µM	–	> 100 µM	> 100 µM	–	–	–	–	–	–	–	–	–	–
COc1cccc(/C=N/[N-]C(=O)c2ccncc2)c1[O-].[Mn+2].[OH3+]	> 100 µM	> 100 µM	> 100 µM	4.19 µM	> 100 µM	> 100 µM	–	> 100 µM	> 100 µM	18.3 µM	42	4.7 µM	1.45 µM	4.49 µM	5.86	8.97 µM	5.45	–	–
CCCCCCCCCCC(=O)CCCCCCC(=O)O	> 100 µM	> 100 µM	36.1 µM	18.7 µM	29.8 µM	68.8 µM	91.5 µM	86.1 µM	81.5 µM	–	–	–	–	–	–	–	–	–	–
COc1ccc(C(c2ccccc2C(=O)O)c2ccc(OC)c3ccccc23)c2ccccc12	45.3 µM	25.4 µM	27.5 µM	38.1 µM	30.2 µM	30.2 µM	–	26.6 µM	63.4 µM	–	–	–	–	–	–	–	–	–	–
CCCCCCCCSC(=O)NCCCC	> 100 µM	> 100 µM	66.6 µM	41.3 µM	> 100 µM	–	69.3 µM	> 100 µM	> 100 µM	–	–	–	–	–	–	–	–	–	–
CCCCC(C(=O)C(=O)Nc1ccc(C)cc1C)C(=O)C(C)C (stereo not drawn)	> 100 µM	> 100 µM	> 100 µM	> 100 µM	–	> 100 µM	> 100 µM	> 100 µM	> 100 µM	–	–	–	–	–	–	–	–	–	–
O/N=C1/CCCC/C1=C/C=C/c1ccccc1	62 µM	> 100 µM	32.9 µM	41.2 µM	35.4 µM	–	41.5 µM	32.3 µM	> 100 µM	–	–	–	–	–	–	–	–	–	–
C#CCN(N=O)C(=O)NC(CCCCNC(=O)OCc1ccccc1)C(=O)OCc1ccccc1 (stereo not drawn)	86 µM	> 100 µM	46.9 µM	37.6 µM	96.6 µM	> 100 µM	> 100 µM	76.8 µM	–	–	–	–	–	–	–	–	–	–	–
CC(=O)Nc1ccccc1-c1nc2ccccc2nc1-c1ccccc1	–	> 100 µM	> 100 µM	> 100 µM	> 100 µM	> 100 µM	> 100 µM	> 100 µM	> 100 µM	–	–	–	–	–	–	–	–	–	–
O=C(NCCCCCCCCCCCCNC(=O)c1cnc2ccccc2n1)c1cnc2ccccc2n1	–	47.7 µM	> 100 µM	> 100 µM	> 100 µM	> 100 µM	88.6 µM	> 100 µM	> 100 µM	–	–	–	–	–	–	–	–	–	–
O=C1c2c(O)cccc2C(C(=O)CCCCCC(=O)C2c3cccc(O)c3C(=O)c3c(O)cccc32)c2cccc(O)c21	7.61 µM and 18.7 µM	3.9 µM and 6.97 µM	11.4 µM and 23.1 µM	5.35 µM and 4.77 µM	25 µM and 15.5 µM	6.96 µM and 16.9 µM	–	3.11 µM and 8.21 µM	10.2 µM and 19.9 µM	8.83 µM	2.05	11.8 µM	–	7.8 µM	5.45	10.6 µM	2.5	–	–
CCc1cccc(C(C)C)c1NC(=O)CC1Sc2ccccc2NC1=O (stereo not drawn)	> 100 µM	> 100 µM	> 100 µM	50 µM	> 100 µM	> 100 µM	96.3 µM	> 100 µM	> 100 µM	–	–	–	–	–	–	–	–	–	–
NC(Cc1ccccc1)C(=O)OCN1C(=O)C2C3C=CC(C2C1=O)C1C2C(=O)N(COC(=O)C(N)Cc4ccccc4)C(=O)C2C31 (stereo not drawn)	> 100 µM	> 100 µM	> 100 µM	43.5 µM and > 100 µM	32.8 µM and 32.2 µM	> 100 µM	41.7 µM and 39.3 µM	39.1 µM and 34.6 µM	> 100 µM	–	–	–	–	–	–	37.8 µM and 77.2 µM	–	–	–
C[C@@H](C1CC[C@H]2[C@@H]3[C@@H]4O[C@@H]4[C@@]4(O)CC=CC(=O)[C@]4(C)[C@H]3C[C@H](O)[C@]12C)[C@H]1C[C@]2(C)O[C@]2(C)C(=O)O1 (stereo partly drawn)	> 100 µM	> 100 µM	> 100 µM	> 100 µM	> 100 µM	–	–	> 100 µM	> 100 µM	–	–	–	–	–	–	–	–	> 100	–

SMILES	TGI (TK-10 renal)	TGI (SNB-19 CNS)	TGI (HT29 colon)	TGI (HL-60(TB) leukemia)	TGI (COLO 205 colon)	TGI (HOP-62 NSCLC)	TGI (RXF 393 renal)	TGI (U251 CNS)	TGI (CAKI-1 renal)	GI50 (TK-10 renal)	GI50 (SNB-19 CNS) [µM]	GI50 (HT29 colon)	GI50 (HL-60(TB) leukemia)	GI50 (COLO 205 colon)	GI50 (HOP-62 NSCLC) [µM]	GI50 (CAKI-1 renal)	GI50 (U251 CNS) [µM]	TGI (NCI/ADR-RES ovarian) [µM]	GI50 (RXF 393 renal) [µM]
CC12Nc3ccccc3C1=C(c1ccccc1)CC1C(=O)OC(=O)C12 (stereo not drawn)	> 100 µM	> 100 µM	> 100 µM	> 100 µM	> 100 µM	> 100 µM	> 100 µM	> 100 µM	–	–	–	–	–	–	–	–	–	–	–
CCOC(=O)c1oc2c(OC)ccc3c2c1CCC3	> 100 µM	> 100 µM	> 100 µM	> 100 µM	> 100 µM	> 100 µM	> 100 µM	> 100 µM	–	–	–	–	–	–	–	–	–	–	–
CC[C@@]1(O)C(=O)OCc2c1cc1n(c2=O)Cc2cc3cc(Cl)ccc3nc2-1	> 100 µM	0.866 µM and 3.82 µM	0.203 µM	–	1.41 µM and 1.47 µM	–	0.137 µM	0.0234 µM	1.07 µM and 1.19 µM	2.58 µM and 1.87 µM	0.00345	0.0269 µM and 0.0187 µM	0.00156 µM and 0.0131 µM	0.02 µM and 0.0458 µM	< 0.001	–	0.00197	–	0.0106
c1ccc2c(c1)[nH]c1cnc3c4ncccc4[nH]c3c12	> 100 µM	> 100 µM	> 100 µM	> 100 µM	> 100 µM	> 100 µM	> 100 µM	> 100 µM	> 100 µM	–	–	–	–	–	–	–	–	–	–
O=C1C=CC2(CCCCCCC2=O)CC1 (stereo not drawn)	> 100 µM	> 100 µM	> 100 µM	> 100 µM	> 100 µM	> 100 µM	> 100 µM	> 100 µM	> 100 µM	–	–	–	–	–	–	–	–	–	–
O=C(CCC(=O)Nc1ccccc1C(F)(F)F)N/N=C1\C(=N\NC(=O)CCC(=O)Nc2ccccc2C(F)(F)F)C(c2ccc3c(c2)OCO3)Oc2ccccc21 (stereo not drawn)	> 100 µM	> 100 µM	> 100 µM	> 100 µM	> 100 µM	56.3 µM	> 71.7 µM	68.5 µM	98 µM	–	–	–	–	–	–	–	–	–	–
C[C@H]1CCC/C=C/C2CC(OC(=O)CN(C)C)CC2C(OC(=O)CN(C)C)/C=C/C(=O)O1 (stereo partly drawn)	17.9 µM	> 100 µM	3.8 µM	7.47 µM	3.6 µM	23.2 µM	0.314 µM	46.8 µM	7.69 µM	0.318 µM	2.76	0.342 µM	0.682 µM	0.246 µM	2.51	0.38 µM	0.861	–	0.0972
C/C=C1/CN2CCC34C(=C(C(=O)OC)C1CC23)Nc1ccc(O)cc14 (stereo not drawn)	> 100 µM	> 100 µM	> 100 µM	> 100 µM	> 100 µM	–	–	> 100 µM	> 100 µM	–	–	–	–	–	–	–	–	> 100	–
COc1cc(/C=C/C(=O)c2cccc3ccccc23)cc(OC)c1OC	27.3 µM	27.8 µM	14.4 µM	4.31 µM	–	18.8 µM	7.93 µM	18.8 µM	23.2 µM	–	–	–	–	–	–	–	–	–	–
Cc1noc2cccc(O)c12	> 100 µM	> 100 µM	> 100 µM	> 100 µM	> 100 µM	> 100 µM	> 100 µM	> 100 µM	> 100 µM	–	–	–	–	–	–	–	–	–	–
CC1=C(C(=O)Nc2cccc(Cl)c2)C(c2ccccc2O)C(C(=O)Nc2cccc(Cl)c2)=C(C)N1	39.5 µM	52.1 µM	35.7 µM	48.1 µM	43.2 µM	39.8 µM	31.9 µM	41.4 µM	43.3 µM	–	–	–	–	–	–	–	–	–	–
O/N=C1/CCC/C1=C\c1ccccc1	> 100 µM	> 100 µM	–	> 100 µM	> 100 µM	> 100 µM	> 100 µM	> 100 µM	> 100 µM	–	–	–	–	–	–	–	–	–	–
Cc1ccccc1/C=C/c1csnn1	> 100 µM	> 100 µM	> 100 µM	39 µM	> 100 µM	> 100 µM	> 100 µM	> 100 µM	> 100 µM	–	–	–	–	–	–	–	–	–	–
O=C1OC(CC(=O)c2ccc(F)cc2)C(Cl)=C1Cl (stereo not drawn)	91.1 µM	47 µM	32.1 µM	62 µM	–	72.5 µM	37.5 µM	34.3 µM	92.8 µM	–	–	–	–	–	–	–	–	–	–
NC1=NN(c2ccccc2)C(=O)C1C(=O)C(=O)Nc1ccc(Cl)cc1 (stereo not drawn)	> 100 µM	–	> 100 µM	> 100 µM	> 100 µM	> 100 µM	> 100 µM	> 100 µM	> 100 µM	–	–	–	–	–	–	–	–	–	–
CC(=O)OC1C[C@H]2C(OC(=O)c3ccccc3)C3C4(OC(C)=O)COC4C[C@H](OC(C)=O)[C@@]3(C)C(OC(C)=O)[C@H](OC(C)=O)C(=C1C)C2(C)C (stereo partly drawn)	> 100 µM	> 100 µM	> 100 µM	72 µM	> 100 µM	> 100 µM	49.3 µM	–	31.4 µM	–	–	–	–	–	–	–	–	–	–
